Assay results from EP0471221B1, “Herbicidal compositions” (IDEMITSU KOSAN COMPANY LIMITED, priority 1990, dated 1992).

Assays:
Galium aparine L. = experiment: Test on post-emergence treatment (greenhouse pots, foliage spray); type: in vivo; conditions: after 20 days
Excerpt: (§1) By uniformly blending 97 parts of clay (trademark: JIKURAITO, manufactured by JIKURAITO KOGYO) as the carrier, 1.5 parts of alkylaryl sulfonate (trademark: NEOPELEX, manufactured by Kao Atlas Co., Ltd.) as the surfactant, 1.5 parts of nonionic and anionic surfactant (trademark: Solpol 800A, manufactured by Toho Chemical Industry Co., Ltd.) and grinding into a powder, a carrier for wettable powders was obtained.
(§2) By uniformly blending 90 parts of this carrier for wettable powders and 10 parts of the triazine derivative shown in Table 1 (Compounds A-1 through A-7) or 10 parts of the thiocarbamate type herbicide shown in Table 2 (Compounds B) and grinding into a powder, wettable powders were obtained.
(§3) Furthermore, the carrier for wettable powders containing the triazine derivative obtained above was blended with the carrier for wettable powders containing the thiocarbamate type herbicide in definite amounts (ratios as active ingredients), uniformly kneaded and ground into powders to give wettable powders.
(§4) Wagner's pots of 1/2000 ares were filled with soil from upland fields and planted with weed seeds of Alopecurus myosuroides, Galium aparine L., Veronica hederifolia and Viola arvensis and crop seeds of wheat, barley and oat. The seeds were then covered with soil and cultivated in a greenhouse. An aqueous suspension of a definite amount of the herbicide obtained in Formulation Example 6 was uniformly sprayed onto the foliage of 1.5 to 2.5 leaf stage of these weeds and 3 leaf stage of the crops at a spray volume corresponding to 100 liters/10 ares. Then, cultivation was performed in the greenhouse. After 20 days, crop injury and the herbicidal effect on the weeds were evaluated according to the criterion described below.
(§5) The herbicidal rate described above was determined according to the following equation by measuring the raw weight of weed on the ground in the treated group and the raw weight of weed on the ground in the untreated group. [formula]
(§6) Some data were extracted from the results shown in Table 3 and the synergistic effect of the triazine derivative and the thiocarbamate type herbicide was examined on Galium aparine L. and Viola arvensis according to the following method. [formula] Q a : found data (%) of herbicidal rate when treated at a dosage corresponding to a g/10 ares using the triazine derivative alone as active ingredient Q b : found data (%) of herbicidal rate when treated at a dosage corresponding to b g/10 ares using the thiocarbamate type herbicide alone as active ingredient Q E : expected value [Limpel, L.E., P.H. Schuldt and D. Lamont, Proc. NEWCC, 16, 48-53 (1962)] Herein, when the found data (herbicidal rate) of the herbicidal obtained by mixing the triazine derivative and the thiocarbamate type herbicide is larger than Q E, it can be said that the herbicidal activity is synergistic.

Viola arvensis = experiment: as above; type: in vivo; conditions: after 20 days
Excerpt: as §1, §2, §3, §4, §5, §6

[1] = triazine derivative alone, 10 g/10a
[2] = triazine derivative alone, 5 g/10a
[3] = thiocarbamate type herbicide alone, 100 g/10a

CC(Nc1nc(N)nc(C(C)(C)F)n1)c1cc2ccccc2o1 (stereo not drawn) [A₁, 2-amino-4-[1-(benzofuran-2'-yl)ethylamino]-6-(α-fluoro,α-methylethyl)-s-triazine]
Percent control of Galium aparine L.(%) (Galium aparine L.; [1]): 38%
Percent control of Viola arvensis(%) (Viola arvensis; [1]): 54%

CC(F)c1nc(N)nc(NC(C)c2cc3ccccc3o2)n1 (stereo not drawn) [A₂, 2-amino-4-[1-(benzofuran-2'-yl)ethylamino]-6-(α-fluoroethyl)-s-triazine]
Percent control of Galium aparine L.(%) (Galium aparine L.; [2]): 37%
Percent control of Viola arvensis(%) (Viola arvensis; [2]): 68%

CC(Nc1nc(N)nc(C(C)(C)F)n1)c1cc2ccccc2s1 (stereo not drawn) [A₃, 2-amino-4-[1-(benzothiophen-2'-yl)ethylamino]-6-(α-fluoro,α-methylethyl)-s-triazine]
Percent control of Galium aparine L.(%) (Galium aparine L.; [1]): 56%
Percent control of Viola arvensis(%) (Viola arvensis; [1]): 64%

Cc1cccc(OCC(C)Nc2nc(N)nc(C(C)(C)F)n2)c1 (stereo not drawn) [A₄, 2-amino-4-(α-fluoro,α-methylethyl)-6-[2-(3'-methylphenoxy)-1-methylethylamino]-s-triazine]
Percent control of Galium aparine L.(%) (Galium aparine L.; [1]): 62%
Percent control of Viola arvensis(%) (Viola arvensis; [1]): 74%

CC(COc1cccc(F)c1)Nc1nc(N)nc(C(C)(C)F)n1 (stereo not drawn) [A₅, 2-amino-4-(α-fluoro,α-methylethyl)-6-[2-(3'fluorophenoxy)-1-methylethylamino]-s-triazine]
Percent control of Galium aparine L.(%) (Galium aparine L.; [2]): 38%
Percent control of Viola arvensis(%) (Viola arvensis; [2]): 72%

Cc1cc(C)cc(OCC(C)Nc2nc(N)nc(C(C)(C)Cl)n2)c1 (stereo not drawn) [A₆, 2-amino-4-(α-chloro,α-methylethyl)-6-[2-(3',5'-dimethylphenoxy)-1-methylethylamino]-s-triazine]
Percent control of Galium aparine L.(%) (Galium aparine L.; [1]): 64%
Percent control of Viola arvensis(%) (Viola arvensis; [1]): 78%

Cc1cc(C)cc(OCC(C)Nc2nc(N)nc(C(C)(C)F)n2)c1 (stereo not drawn) [A₇, 2-amino-4-(α-fluoro,α-methylethyl)-6-[2-(3',5'-dimethylphenoxy)-1-methylethylamino]-s-triazine]
Percent control of Galium aparine L.(%) (Galium aparine L.; [2]): 40%
Percent control of Viola arvensis(%) (Viola arvensis; [2]): 63%

CCCN(CCC)C(=O)SCc1ccccc1 [B, S-benzyldipropyl thiocarbamate, reference compound]
Percent control of Galium aparine L.(%) (Galium aparine L.; [3]): 36%
Percent control of Viola arvensis(%) (Viola arvensis; [3]): 19%
